One molecule from publication PMC11040934, “PI3Kγδ inhibition suppresses key disease features in a rat model of asthma” (Respiratory Research, 2024) can be followed below.

Structures are written as SMILES.

Holding throughout (assay type): in vivo, Brown Norway rat
One experiment relates to PI3K pathway (pAkt). Kind of experiment: Rat model of allergic asthma: lung tissue pAkt (T308), target engagement. The conditions noted are these: i.t. 1 hr before OVA challenge; AZD8154 0.02, 0.1, 0.3 mg/kg, budesonide 3 mg/kg; lung 2 hrs after challenge. As for the experimental part: (§1) Male, adult, Brown Norway rats were obtained from Charles River Germany at a body weight range of 250-300 g. Animals were housed in temperature controlled individually ventilated cages in groups of 4 with food and water provided ad libitum. Animals underwent acclimatisation for at least 1 week prior to experimentation. Experiments were performed in accordance with the UK Home Office guidelines for animal welfare based on the Animals (Scientific Procedures) Act of 1986 and the ARRIVE guidelines (Fig. E2).
Initially a time course study was performed, followed by a characterisation study with compound & clinical comparator. […]
5 μL of supernatant (1:50 dilution) was taken for Bradford Assay which was run according to manufacturers’ instructions (BioRad, USA). […] Absorbance was measured using a spectrophotometer and total protein values interpolated to standard curve (595 nm; Spectromax, UK).
10 μg of protein from lung tissue extract were utilized in pAkt (T308); pSTAT3, pSTAT4 & STAT5a, b (Phospho-STAT Panel kit) MSD Assay plates (Meso Scale Delivery, USA) and run according to manufacturers’ instructions. Arbitrary electrochemiluminescence signals were read, the blank subtracted and values determined in each plate using a MSD S-Plex plate reader (Meso Scale Delivery, USA).

Experiment [1] concerns Brown Norway rats, OVA sensitised and challenged. Kind of experiment: Rat model of allergic asthma: late asthmatic response (Penh, whole body plethysmography). The note with it: 1-6 hrs after OVA challenge; i.t. dosing. As for the experimental part: as §1
Initially a time course study was performed, followed by a characterisation study with compound & clinical comparator. For both studies, rats were sensitised on day 0, 14 and 21 by an intraperitoneal (i.p.) injection of 4 mL/kg (1 mL/rat) of ovalbumin (OVA;100 μg/rat) in Imject™ Alum (20 mg/rat aluminium hydroxide and 20 mg/rat magnesium hydroxide) or sham sensitised (Saline [Sal] in Imject™ Alum). […]
In both studies, 30 mins post-challenge, rats were placed unrestrained in Perspex plethysmographs connected to bias flow pumps (DSI Europe Ltd), with food and water ad libitum. 55 mins post-challenge, a five mins baseline recording was taken and the average penh and area under the curve (AUC) was recorded at 10 mins intervals for a total duration of 5 hrs and was used for analysis (DSI Europe Ltd).

The test system is the same in experiment [2]. Kind of experiment: Rat model of allergic asthma: BAL cellular inflammation. The conditions noted are these: BAL 24 hrs after OVA challenge; i.t. dosing. As for the experimental part:
as §1
Initially a time course study was performed, followed by a characterisation study with compound & clinical comparator. For both studies, rats were sensitised on day 0, 14 and 21 by an intraperitoneal (i.p.) injection of 4 mL/kg (1 mL/rat) of ovalbumin (OVA;100 μg/rat) in Imject™ Alum (20 mg/rat aluminium hydroxide and 20 mg/rat magnesium hydroxide) or sham sensitised (Saline [Sal] in Imject™ Alum). On day 28 rats were challenged with 1% (w/v) aerosolised OVA in isotonic saline, or sham challenged with isotonic saline (30 mins).
Following blood collection, rats underwent tracheostomy and were cannulated. Rats were lavaged and bronchoalveolar lavage (BAL) fluid was collected (2 × 3 mL RPMI, 30 secs, 70% vol. retained). Slides were prepared using 100 μL of neat BAL, centrifuged (700 rpm, 5 mins, RT, low acceleration; Cytospin 2, Shandon, Runcorn, UK). 800 μL of neat BAL was collected and centrifuged (800×g, 10 mins, 4 °C). Supernatant was collected and stored (− 80 °C), and cell pellet was resuspended (200 μL, RPMI), total leukocytes were attained using a Sysmex XP-300 automated cell counter (Sysmex Ltd., Milton Keynes, UK). Remaining BAL was centrifuged (800×g, 10 mins, 4 °C) and supernatant collected and stored (− 80 °C).
BAL cytospin slides were placed in an automated stainer (Hematek 2000, Ames. Co., USA) and stained with a Modified-Wright stain (Siemens, Germany). Differential cell counts using a light microscope were performed based on morphological criteria were performed to determine percentages of macrophages/monocytes, lymphocytes, neutrophils & eosinophils. Total numbers of each distinct cell type were determined based on total leukocyte numbers.

Regarding `CCCC1O[C@@H]2C[C@H]3[C@@H]4CCC5=CC(=O)C=C[C@]5(C)[C@H]4[C@@H](O)C[C@]3(C)[C@]2(C(=O)CO)O1` (some centres unmarked) [budesonide], the “lung tissue pAkt levels” value in the experiment with PI3K pathway (pAkt) is listed as “dramatic inhibition”. The “LAR (Penh, AUC)” value in experiment [1] is “inhibiting the lung function change”. For the same molecule, in experiment [2], the BAL eosinophils entry is “reversing these key features to basal levels”, the BAL neutrophils result was “reversing these key features to basal levels” and the BAL total leukocytes entry was “reversing these key features to basal levels”.
